US20250108038A1 (priority 2023, published 2025)

Experiments:
[1] = biological target: T1, CYP2C8 (Homo sapiens, UniProt P10632); test: in vitro; conditions: both, pH 7.4
T1 sequence (P10632 1-490): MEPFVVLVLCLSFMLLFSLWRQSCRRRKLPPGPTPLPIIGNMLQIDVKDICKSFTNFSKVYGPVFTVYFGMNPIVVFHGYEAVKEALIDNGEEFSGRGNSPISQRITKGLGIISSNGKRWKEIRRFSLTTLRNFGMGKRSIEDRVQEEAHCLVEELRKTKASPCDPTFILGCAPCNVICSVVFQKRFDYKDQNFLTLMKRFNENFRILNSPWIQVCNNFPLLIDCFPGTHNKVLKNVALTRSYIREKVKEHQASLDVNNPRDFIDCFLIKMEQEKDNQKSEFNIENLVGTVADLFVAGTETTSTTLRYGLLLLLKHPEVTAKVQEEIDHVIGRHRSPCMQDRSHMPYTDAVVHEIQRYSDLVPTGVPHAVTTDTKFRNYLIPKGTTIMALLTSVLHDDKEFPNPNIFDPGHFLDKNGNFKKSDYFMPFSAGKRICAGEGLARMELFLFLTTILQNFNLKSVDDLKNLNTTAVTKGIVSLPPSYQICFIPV

[2] = biological target: CYP3A4 (Homo sapiens, UniProt P08684); test: in vitro; conditions: both, pH 7.4, Inhibition at Highest Test Article Concentration
Sequence of CYP3A4 (P08684 whole entry): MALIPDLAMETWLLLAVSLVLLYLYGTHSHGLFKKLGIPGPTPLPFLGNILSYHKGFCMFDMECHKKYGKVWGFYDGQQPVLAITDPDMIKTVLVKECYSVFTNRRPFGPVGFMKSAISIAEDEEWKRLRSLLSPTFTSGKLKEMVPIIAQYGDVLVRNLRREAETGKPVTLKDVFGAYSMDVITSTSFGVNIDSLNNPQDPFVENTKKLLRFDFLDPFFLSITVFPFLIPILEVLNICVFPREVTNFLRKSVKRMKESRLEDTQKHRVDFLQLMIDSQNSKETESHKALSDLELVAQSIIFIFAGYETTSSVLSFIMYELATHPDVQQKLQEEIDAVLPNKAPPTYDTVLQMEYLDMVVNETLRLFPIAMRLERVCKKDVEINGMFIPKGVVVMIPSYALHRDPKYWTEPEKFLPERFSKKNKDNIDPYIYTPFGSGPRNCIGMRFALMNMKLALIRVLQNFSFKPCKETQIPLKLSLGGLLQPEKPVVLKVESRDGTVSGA

[3] = test system: Wistar rats; test: Five Choice Serial Reaction Time Task, vSD version, repeated administration; assay type: in vivo, Wistar rat; design: Latency (Correct) / Latency (Incorrect): unit not given here; conditions: for Latency (Correct) / Latency (Incorrect) / Magazine Head Entries / Omissions / Reward Latency / Trials Completed: vSD, mean ± SEM
From the text: The behavioral tasks utilized were three versions of the rat Five Choice Serial Reaction Time Task (5C-SRTT), the standard version of the task (STD) with a fixed stimulus duration and a fixed intertrial interval, the variable stimulus duration (vSD) and the variable intertrial interval (vITI) version. The principal readout parameters in each task were the % Hit and the % correct choices (measures of sustained attention) and three measures of inhibitory response control (premature, perseverative, and timeout responses), although a number of additional outcome measures were obtained (see under Methods and Results below).
Twenty-four adult (approx. 10 months old) male Wistar rats (Envigo, Inc, Indianapolis, IN) were used in the study. […] Subjects were double housed in polycarbonate cages (45×30×18 cm) with corncob bedding in a vivarium of constant temperature (21-23° C.) and humidity (40-50%). […] All behavioral testing was performed during the light portion (9 a.m.-5 p.m.) of the light/dark cycle (Monday thru Friday). Animals were cared for in accordance with the Guide for the Care and Use of Laboratory Animals (U.S. National Institutes of Health) and the experimental protocols were approved by the Institutional Animal Care and Use Committee at Augusta University (Protocol #2010-0044).
The 5C-SRTT procedure (reviewed, Robbins, 2002. Psychopharmacology (Berl); 163(3-4):362-80) was conducted as we have described previously (Terry et al., 2014, Neurotoxicology and Teratology 44:18-29, 2014; Callahan et al., 2020, Neuropharmacology. August 15; 173:107994). […] Animals were trained in eight automated 5C-SRTT operant chambers (Med Associates, St. Albans, VT, USA), controlled by MedPC software (Med Associates). Briefly, each operant chamber was equipped with 5 apertures containing a photocell beam to detect nose pokes and a lamp (2.8 W) that could be illuminated randomly at varying durations. Food pellets (45 mg chow pellet, BioServ, Frenchtown, NJ, USA) were delivered automatically to a magazine, located on the opposite wall to the nose pokes, that was also equipped with a light that turned on to indicate that a pellet had been dispensed. The house-light remained on for the entire session unless an error or omission occurred. Training sessions began with the delivery of a food reward and retrieval triggered the first trial. […] Sessions ended when 40 minutes had lapsed or 100 trials had been completed.
For this study, subjects were re-trained 5 days per week until they re-established a stable performance criteria with a fixed (1.0 sec) stimulus duration and a fixed ITI (5 sec) of 70-75% accuracy, <20% omissions and completion of all 100 trials for 5 consecutive days. Upon meeting these performance criteria animals were trained for one additional week and two groups of subjects (N=12) were assembled and balanced according to their performance accuracy, specifically the % Hit evaluation, which takes into account correct responses as well as all incorrect responses including the number of omissions. […] The vSD version of the task increases the attentional load while the vITI increases impulsivity-like behavior. The following outcome measures and behavioral domains were assessed: % Hit and % correct=sustained attention; omissions=attention/motivation; premature responses=impulsivity; perseverative responses=compulsivity; timeout responses=cognitive inflexibility; magazine head entries=appetitive motivation and compulsivity-like behavior; response latencies=information processing speed and/or motivation. For the STD version of the task, the stimulus duration (SD) was fixed at 1.0 sec and the ITI was fixed at 5 sec. In the vSD version of the task the following stimulus durations were presented in a pseudorandom manner: 0.3, 0.6, and 0.9 sec. In the vITI version, 2.5, 5.0, and 10.0 sec ITIs were employed in a pseudorandom manner. […]

[4] = Group 1, 0.1 mg/kg, Drug Exp period
[5] = Group 1, 0.1 mg/kg, Post-Drug Exp (vehicle washout) period
[6] = Group 2, 0.3 mg/kg, Drug Exp period
[7] = Group 2, 0.3 mg/kg, Post-Drug Exp (vehicle washout) period

Structure (SMILES): OC1(c2ccc(Cl)cc2)c2ccccc2C2=NCCN21 (centres unmarked) [Compound A, 5-(4-chlorophenyl)-2,3-dihydroimidazo[1,2-b]isoindol-5-ol, reference compound]
- inhibition at 10 µM [1]: 48.9%
- inhibition at 10 µM ([2]; 3A4, Midazolam): 11.7%
- inhibition at 10 µM ([2]; 3A4, Testosterone): 14%

Structure (SMILES): Clc1ccc(C2(OCC3OCCO3)c3ccccc3C3=NCCN32)cc1 (centres unmarked) [Compound I-19]
- % Hit ([3]; repeated 0.1 and 0.3 mg/kg IP): modest decrease in accuracy that was limited to the 0.6 sec stimulus duration
- premature responses ([3]; repeated 0.1 and 0.3 mg/kg IP): reduced the number of premature responses compared to post-drug conditions
- Latency (Correct) [3, 4]: 0.99
- Latency (Incorrect) [3, 4]: 2.17
- Magazine Head Entries [3, 4]: 168.21 ± 10.60
- Omissions [3, 4]: 15.79
- Reward Latency [3, 4]: 2.44
- Trials Completed [3, 4]: 94.17 ± 2.75
- Latency (Correct) [3, 5]: 0.86 ± 0.03
- Latency (Incorrect) [3, 5]: 1.90 ± 0.09
- Magazine Head Entries [3, 5]: 189.79 ± 14.47
- Omissions [3, 5]: 8.12 ± 1.63
- Reward Latency [3, 5]: 2.13
- Trials Completed [3, 5]: 97.79 ± 2.21
- Latency (Correct) [3, 6]: 0.91
- Latency (Incorrect) [3, 6]: 2.21
- Magazine Head Entries [3, 6]: 208.46 ± 28.88
- Omissions [3, 6]: 14.08
- Reward Latency [3, 6]: 2.99
- Trials Completed [3, 6]: 98.29 ± 0.84
- Latency (Correct) [3, 7]: 0.76
- Latency (Incorrect) [3, 7]: 1.65 ± 0.08
- Magazine Head Entries [3, 7]: 245.17 ± 33.79
- Omissions [3, 7]: 5.79 ± 1.35
- Reward Latency [3, 7]: 2.11
- Trials Completed [3, 7]: 100.00
